From patent publication US12257247B2 (Monte Rosa Therapeutics AG, priority 2023, dated 2025)
Like-named read-outs stand apart in the source and are kept apart here.

Biological target: T1, VAV1 (Homo sapiens, UniProt P15498+Q96SW2)
T1 construct: A heterozygous VAV1 C-terminal HiBiT knock-in pool was generated at Monte Rosa Therapeutics from a clonal Jurkat cell; endogenous in cells; host or cells: Jurkat clone stably expressing LgBiT, homozygous GSPT1-G575N; heterozygous VAV1-HiBiT knock-in pool
Test: VAV1 degradation activity, VAV1-HiBiT knock-in Jurkat luminescence assay (Example A, Table 1)
Type: cell-based
Settings: VAV1-HiBiT knock-in Jurkat cells; for Dmax: Jurkat
Method in brief: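 Luminescence was measured at 6 and 24 h after adding compound (10 μM stock) to VAV1-HiBiT knock-in Jurkat cells, which had been pre-incubated ~16 h at 37° C. in RPMI/10% FBS containing Endurazine. EC50 values came from control-normalised responses fitted to a 3-parameter logistic model with hillslope fixed at 1.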

[1] = luminescence read at 6 and 24 hours, read-out: VAV1 Dmax %
[2] = luminescence read at 6 and 24 hours, read-out: VAV1 Dmax %, class
[3] = luminescence read at 6 and 24 hours, read-out: VAV1 DC50
[4] = luminescence read at 6 and 24 hours, read-out: VAV1 DC50 (nM), class

Dmax [1] | Dmax [2] | DC50 [3] | DC50 [4] | Dmax (luminescence read at 6 and 24 hours after compound addition, read-out: VAV1 Dmax %) | Dmax (luminescence read at 6 and 24 hours after compound addition, read-out: VAV1 Dmax %, class) | DC50 (luminescence read at 6 and 24 hours after compound addition, read-out: VAV1 DC50) | DC50 (luminescence read at 6 and 24 hours after compound addition, read-out: VAV1 DC50 (nM), class) | SMILES
97.8% | > 90% | 6.96 nM | ≤ 100 nM |  |  |  |  | COc1ccnc(Cc2ccc(-c3cccc(C4CCC(=O)NC4=O)c3Cl)cc2)n1 (centres unmarked) [Compound 421, 3-(2-chloro-4′-((4-methoxypyrimidin-2-yl)methyl)-[1,1′-biphenyl]-3-yl)piperidine-2,6-dione]
94.6% | > 90% | 14.6 nM | ≤ 100 nM |  |  |  |  | O=C1CC[C@@H](c2cccc(-c3ccc(Cn4ccccc4=O)cc3)c2Cl)C(=O)N1 [Compound 202, (S)-3-(2-chloro-4′-((2-oxopyridin-1(2H)-yl)methyl)-[1,1′-biphenyl]-3-yl)piperidine-2,6-dione]
 |  |  |  | 96.2% | > 90% | 6.51 nM | ≤ 100 nM | O=C1CCC(c2cccc(-c3ccc4c(c3)CCCN4)c2Cl)C(=O)N1 (centres unmarked) [Compound 486, 3-(2-chloro-3-(1,2,3,4-tetrahydroquinolin-6-yl)phenyl)piperidine-2,6-dione]
96.5% | > 90% | 10.7 nM | ≤ 100 nM |  |  |  |  | CN1CCCN(Cc2ccc(-c3cccc(C4CCC(=O)NC4=O)c3Cl)cc2F)C1=O (centres unmarked) [Compound 425, 3-(2-chloro-3′-fluoro-4′-((3-methyl-2-oxotetrahydropyrimidin-1(2H)-yl)methyl)-[1,1′-biphenyl]-3-yl)piperidine-2,6-dione]
93.5% | > 90% | 13.4 nM | ≤ 100 nM |  |  |  |  | CC1CCC(=O)N1Cc1ccc(-c2cccc(C3CCC(=O)NC3=O)c2Cl)cc1 (centres unmarked) [Compound 297]
96% | > 90% | 14.8 nM | ≤ 100 nM |  |  |  |  | O=C1CCC(c2cccc(-c3ccc(Cc4cnccn4)cc3)c2Cl)C(=O)N1 (centres unmarked) [Compound 159, 3-(2-chloro-4′-(pyrazin-2-ylmethyl)-[1,1′-biphenyl]-3-yl)piperidine-2,6-dione]
78% | 60 to 90% | 92.1 nM | ≤ 100 nM |  |  |  |  | O=C1CCC(c2cccc(-c3ccc(CN4CCOCC4=O)cc3)c2Cl)C(=O)N1 (centres unmarked) [Compound 302]
98.5% | > 90% | 4.83 nM | ≤ 100 nM |  |  |  |  | O=C1CCC(c2cccc(-c3ccc(CN4C(=O)CC45CCC5)cc3)c2Cl)C(=O)N1 (centres unmarked) [Compound 279]
20% | < 60% | ≥ 10000 nM | > 1000 nM |  |  |  |  | Cn1ccc(COc2ccc(-c3cc(C#N)cc(C4CCC(=O)NC4=O)c3Cl)cc2)n1 (centres unmarked) [Compound 157]
64% | 60 to 90% | 542 nM | 100 to 1000 nM |  |  |  |  | O=C1CCC(c2cccc(-c3ccc(N4CCCOC4=O)nc3)c2Cl)C(=O)N1 (centres unmarked) [Compound 451, 3-(2-chloro-3-(6-(2-oxo-1,3-oxazinan-3-yl)pyridin-3-yl)phenyl)piperidine-2,6-dione]
96.5% | > 90% | 5.92 nM | ≤ 100 nM |  |  |  |  | Cc1ccnc(Cc2ccc(-c3cccc(C4CCC(=O)NC4=O)c3Cl)cc2)n1 (centres unmarked) [Compound 437, 3-(2-chloro-4′-((4-methylpyrimidin-2-yl)methyl)-[1,1′-biphenyl]-3-yl)piperidine-2,6-dione]
67.3% | 60 to 90% | 418 nM | 100 to 1000 nM |  |  |  |  | O=C1CCC(c2cccc(-c3cnc(Cn4ccccc4=O)c(F)c3)c2Cl)C(=O)N1 (centres unmarked) [Compound 412, 3-(2-chloro-3-(5-fluoro-6-((2-oxopyridin-1(2H)-yl)methyl)pyridin-3-yl)phenyl)piperidine-2,6-dione]
58.4% | < 60% | 865 nM | 100 to 1000 nM |  |  |  |  | CN1CCN(c2ccc(-c3cccc(C4CCC(=O)NC4=O)c3Cl)cc2)C1=O (centres unmarked) [Compound 387, 3-(2-chloro-4′-(3-methyl-2-oxoimidazolidin-1-yl)-[1,1′-biphenyl]-3-yl)piperidine-2,6-dione]
98% | > 90% | 3.54 nM | ≤ 100 nM |  |  |  |  | O=C1CCC(c2cccc(-c3ccc(N4C(=O)OCC45CCC5)cc3)c2Cl)C(=O)N1 (centres unmarked) [Compound 416, 3-(2-chloro-4′-(6-oxo-7-oxa-5-azaspiro[3.4]octan-5-yl)-[1,1′-biphenyl]-3-yl)piperidine-2,6-dione]
29.2% | < 60% | ≥ 10000 nM | > 1000 nM |  |  |  |  | Cn1ccc(COc2ccc(-c3cccc(C4CCC(=O)NC4=O)c3Cl)c(Cl)c2)n1 (centres unmarked) [Compound 177, 3-(2,2′-dichloro-4′-((1-methyl-1H-pyrazol-3-yl)methoxy)-[1,1′-biphenyl]-3-yl)piperidine-2,6-dione]
97.4% | > 90% | 5.3 nM | ≤ 100 nM |  |  |  |  | CC1(C)COCC(=O)N1c1ccc(-c2cccc(C3CCC(=O)NC3=O)c2Cl)cc1 (centres unmarked) [Compound 402, 3-(2-chloro-4′-(3,3-dimethyl-5-oxomorpholino)-[1,1′-biphenyl]-3-yl)piperidine-2,6-dione]
84.6% | 60 to 90% | 39.5 nM | ≤ 100 nM |  |  |  |  | O=C1CCC(c2cccc(-c3ccc(CN4C(=O)COCC45CC5)cc3)c2Cl)C(=O)N1 (centres unmarked) [Compound 264]
76.8% | 60 to 90% | 647 nM | 100 to 1000 nM |  |  |  |  | CN1CCN(Cc2ccc(-c3cccc(C4CCC(=O)NC4=O)c3Cl)cc2)C(=O)C1 (centres unmarked) [Compound 277]
95.4% | > 90% | 5.38 nM | ≤ 100 nM |  |  |  |  | CN1CCCN(c2ccc(-c3cccc(C4CCC(=O)NC4=O)c3Cl)cc2)C1=O (centres unmarked) [Compound 247]
96.2% | > 90% | 11.2 nM | ≤ 100 nM |  |  |  |  | CC1Oc2ccncc2N(Cc2ccc(-c3cccc(C4CCC(=O)NC4=O)c3Cl)cc2)C1=O (centres unmarked) [Compound 254]
87.6% | 60 to 90% | 99.2 nM | ≤ 100 nM |  |  |  |  | O=C1CCC(c2cccc(-c3ccc(OCC4CCOC4)cc3)c2Cl)C(=O)N1 (centres unmarked) [Compound 141]
93.6% | > 90% | 45.4 nM | ≤ 100 nM |  |  |  |  | O=C1CCC(c2cccc(-c3ccc(OCc4ccccn4)cc3)c2Cl)C(=O)N1 (centres unmarked) [Compound 103]
95.2% | > 90% | 11.7 nM | ≤ 100 nM |  |  |  |  | O=C1CCC(c2cccc(-c3ccc(Cc4nccc(C(F)F)n4)cc3)c2Cl)C(=O)N1 (centres unmarked) [Compound 348, 3-(2-chloro-4′-((4-(difluoromethyl)pyrimidin-2-yl)methyl)-[1,1′-biphenyl]-3-yl)piperidine-2,6-dione]
46% | < 60% | ≥ 10000 nM | > 1000 nM |  |  |  |  | O=C1CCC(c2cccc(-c3ccc(N4C(=O)C5CC4C5)cc3)c2Cl)C(=O)N1 (centres unmarked) [Compound 481, 3-(2-chloro-4′-{3-oxo-2-azabicyclo[2.1.1]hexan-2-yl}-[1,1′-biphenyl]-3-yl)piperidine-2,6-dione]
95% | > 90% | 7.16 nM | ≤ 100 nM |  |  |  |  | Cc1ccc(=O)n(Cc2ccc(-c3cccc(C4CCC(=O)NC4=O)c3Cl)cc2)c1 (centres unmarked) [Compound 188, 3-(2-chloro-4′-((5-methyl-2-oxopyridin-1(2H)-yl)methyl)-[1,1′-biphenyl]-3-yl)piperidine-2,6-dione]
93.3% | > 90% | 11.1 nM | ≤ 100 nM |  |  |  |  | O=C1CCC(c2cccc(-c3ccc(CN4CCC5CC5C4=O)cc3)c2Cl)C(=O)N1 (centres unmarked) [Compound 283]
